Data: patent US10617671B2, “Use of NK-1 receptor antagonist serlopitant in pruritus” (Menlo Therapeutics Inc., priority 2013, dated 2020)

Columns and labels:
NCNga mice = conditions: picrylchloride-induced dermatitis; cited from earlier work
[1] = Solubility test in Franz cell receptor solution; format: physicochemical
CYP-3A4 mRNA = conditions: three individual preparations of human hepatocytes; cited from earlier work
human NK-1 receptor = human NK-1 receptor (Homo sapiens, UniProt P25103); conditions: cited from earlier work
[2] = Solubility of Compound 1 in solvents; format: physicochemical
Text: S-BTBA ((S)-1-[3,5-bis(trifluoromethyl)] phenylethanol)) (12) is reacted with trichloroacetonitrile (Sigma-Aldrich) in the presence of base 1,8-diazabicycloundec-7-ene (DBU) to produce imidate (13). HBF4 is used to catalyze the reaction of (11) with (13) to yield ether (14). Treatment with allylamine and bis-propylsulfonate cyclizes (14) to allylamine-protected pyrrolidine (15). Removal of the allyl protecting group with thiosalicylic acid and 1,4-bis(diphenylphosphino)butane (dppb), followed by […] (Pd2(dba)3) and isolation with acetic acid gives crystalline (16). Finally, (16) is reacted with 1,3-cyclopentanedione (Sigma-Aldrich) in isopropyl alcohol to give Compound 1. Compound 1 is a white to off-white powder.

[3] = system: cloned human NK-2 and NK-3 receptors; conditions: CHO cells stably expressing the respective receptors; cited from earlier work
[4] = In vitro skin permeation, Franz diffusion cell; format: in vitro ADME; conditions: topical formulations B and C, LC-MS/MS, human skin, 37° C.
Method: In vitro skin permeation of serlopitant in topical formulations A-D was evaluated using a Franz diffusion cell. FIG. 2 illustrates a Franz diffusion cell. A Franz diffusion cell having a circular permeation area of 4.15 cm^2 and a receptor chamber volume of 19 mL was set up with a thermo-regulated outer water jacket to maintain the temperature at 37° C. The receptor chamber was filled with 19 mL 1×PBS (pH 7.5) containing 10% ethanol and 1% Tween® 80.
Human skin was pretreated to remove all subcutaneous fat and was cleaned with 70% ethanol before use. The skin was visually inspected to ensure that it was free of any surface irregularity or small holes and was equally divided into four pieces. The skin was then mounted onto the receptor chamber with the stratum corneum side facing up. About 100 mg of topical formulation A, B, C or D was applied to the skin (actual weight: A, 103.8 mg; B, 101.3 mg; C, 103.2 mg; and D, 103.8 mg), which was then covered with parafilm to avoid evaporation. […]
All samples were processed by solid-phase extraction (SPE) before LC-MS/MS analysis. […] Serlopitant concentrations in samples resulting from formulations A-D were determined by comparison to the standard. Serlopitant was not detected in samples resulting from topical formulations A and D, as expected. […] After an initial lag, serlopitant was detected by LC-MS/MS in the receptor chamber at 6 hours.

patients with OAB = conditions: cited from earlier work
[5] = system: patients with chronic pruritus; parameters: patients with considerable reduction in itch intensity: unit not given here; conditions: 80 mg daily for 3 to 13 days, cited from earlier work
CYP2C9 = CYP2C9 (Homo sapiens, UniProt P11712); conditions: cited from earlier work
[6] = system: patients with Sézary syndrome; conditions: oral, 80 mg daily, three patients with Sézary syndrome; cited from earlier work
CYP3A4 = CYP3A4 (Homo sapiens, UniProt P08684); conditions: cited from earlier work
[7] = system: patients suffering from chronic pruritus; conditions: single topical dose, 5% in a lipophilic vehicle; cited from earlier work
[8] = itch; cited from earlier work
[9] = system: patients with liver and kidney disease; conditions: cited from earlier work

human NK-1 receptor, sequence (P25103 whole entry): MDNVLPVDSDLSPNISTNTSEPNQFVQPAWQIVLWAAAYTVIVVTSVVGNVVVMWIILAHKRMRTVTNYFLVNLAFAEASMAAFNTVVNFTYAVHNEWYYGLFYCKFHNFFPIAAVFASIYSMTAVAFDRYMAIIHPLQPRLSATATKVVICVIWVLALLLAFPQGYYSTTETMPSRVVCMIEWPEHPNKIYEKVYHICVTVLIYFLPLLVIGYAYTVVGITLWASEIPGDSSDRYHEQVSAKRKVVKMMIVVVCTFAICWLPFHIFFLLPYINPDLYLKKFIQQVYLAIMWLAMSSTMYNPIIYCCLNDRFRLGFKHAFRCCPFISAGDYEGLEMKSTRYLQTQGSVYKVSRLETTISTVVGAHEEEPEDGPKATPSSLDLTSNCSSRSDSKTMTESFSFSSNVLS
CYP2C9, sequence (P11712 whole entry): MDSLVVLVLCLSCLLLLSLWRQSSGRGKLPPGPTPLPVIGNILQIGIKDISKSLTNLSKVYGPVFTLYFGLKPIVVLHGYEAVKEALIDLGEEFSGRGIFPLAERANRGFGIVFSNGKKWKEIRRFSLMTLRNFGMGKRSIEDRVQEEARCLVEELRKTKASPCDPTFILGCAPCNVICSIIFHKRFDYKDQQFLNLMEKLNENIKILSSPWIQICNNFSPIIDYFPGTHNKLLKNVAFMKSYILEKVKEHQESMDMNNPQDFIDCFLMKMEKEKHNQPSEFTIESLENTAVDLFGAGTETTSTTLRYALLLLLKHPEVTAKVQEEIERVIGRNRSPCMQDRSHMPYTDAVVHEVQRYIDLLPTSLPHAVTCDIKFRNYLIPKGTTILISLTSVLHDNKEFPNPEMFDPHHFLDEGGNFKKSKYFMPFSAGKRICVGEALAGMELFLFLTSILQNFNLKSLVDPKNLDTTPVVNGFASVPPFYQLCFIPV
CYP3A4, sequence (P08684 whole entry): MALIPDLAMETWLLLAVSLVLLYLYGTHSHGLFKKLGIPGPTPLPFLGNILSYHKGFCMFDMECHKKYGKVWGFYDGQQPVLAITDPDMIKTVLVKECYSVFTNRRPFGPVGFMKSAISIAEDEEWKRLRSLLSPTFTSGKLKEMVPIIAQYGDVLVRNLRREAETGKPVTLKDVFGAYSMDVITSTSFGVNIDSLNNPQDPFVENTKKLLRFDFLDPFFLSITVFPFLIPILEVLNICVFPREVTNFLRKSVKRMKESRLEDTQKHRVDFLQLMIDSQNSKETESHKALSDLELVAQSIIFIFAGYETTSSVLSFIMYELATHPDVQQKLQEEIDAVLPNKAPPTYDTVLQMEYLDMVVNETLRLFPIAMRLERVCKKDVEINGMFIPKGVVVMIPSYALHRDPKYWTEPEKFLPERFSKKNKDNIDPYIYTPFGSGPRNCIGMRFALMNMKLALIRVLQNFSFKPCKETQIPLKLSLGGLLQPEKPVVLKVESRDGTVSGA

CN(CCc1cc(C(F)(F)F)cc(C(F)(F)F)c1)C(=O)[C@H](c1ccccc1)N1CCN(CC2CC2)CC1 [BIIF 1149 CL]
scratching behavior (NCNga mice): inhibited scratching behavior

C[C@@H](O[C@H]1CC[C@@H]2CN(C3=CC(=O)CC3)C[C@H]2[C@@H]1c1ccc(F)cc1)c1cc(C(F)(F)F)cc(C(F)(F)F)c1 [Compound 1, 3-[(3aR,4R,5S,7aS)-5-[(1R)-1-[3,5-bis(trifluoromethyl)phenyl]ethoxy]-4-(4-fluorophenyl)-1,3,3a,4,5,6,7,7a-octahydroisoindol-2-yl]cyclopent-2-en-1-one]
solubility in receptor solution ([1]; 0.5, 5 and 50 ug/mL in 1xPBS (pH 7.5) with 10% ethanol and 1% Tween 80, 1 hour at 37° C.): remained soluble | solubility change if Tween 80 was not used ([1]; 1xPBS (pH 7.5), 37° C.): decreased significantly | solubility change if ethanol was not used ([1]; 1xPBS (pH 7.5), 37° C.): decreased slightly | induction of CYP-3A4 mRNA (CYP-3A4 mRNA): did not significantly induce | IC50 (human NK-1 receptor; read-out: IC50, displacement of substance P binding): 61 pM | Kd (human NK-1 receptor; read-out: Kd, binding to the human NK-1 receptor): 46 pM | solubility ([2]; acetonitrile): sparingly soluble | solubility ([2]; ethanol): soluble | solubility ([2]; ethyl acetate): sparingly soluble | solubility ([2]; isopropyl acetate): slightly soluble | solubility ([2]; isopropyl alcohol): sparingly soluble | solubility ([2]; methanol): freely soluble | solubility ([2]; water): insoluble | selectivity for NK-1 over NK-2 and NK-3 receptors [3]: > 39,000 fold | time at which serlopitant was detected in the receptor chamber after initial lag [4]: 6 h | number of daily micturitions compared with placebo (patients with OAB; 0.25 and 4 mg daily): significantly reduced | adverse experience of dry mouth (patients with OAB): not associated | dose response relationship with micturition frequency (patients with OAB): did not show a dose response relationship | drug-related serious adverse experiences (patients with OAB): no drug-related serious adverse experiences | secondary efficacy end points: urinary urgency, urge incontinence and total incontinence (patients with OAB): did not significantly influence | tolerability (patients with OAB): generally well tolerated

C[C@@H](O[C@H]1OCCN(Cc2n[nH]c(=O)[nH]2)[C@H]1c1ccc(F)cc1)c1cc(C(F)(F)F)cc(C(F)(F)F)c1 [aprepitant]
effect on chronic pruritus ([5]; atopic diathesis, prurigo nodularis): significantly decreased chronic pruritus | patients with considerable reduction in itch intensity ([5]; twenty patients): Eighty | inhibition and induction of CYP2C9 (CYP2C9): moderate inhibitor as well as an inducer | treatment of pruritus [6]: had utility in treating pruritus | inhibition and induction of CYP3A4 (CYP3A4): moderate inhibitor as well as an inducer | absorption into the skin [7]: absorbed into the skin | effect on patients' itch [7]: not alleviated

NCC1(CC(=O)O)CCCCC1 [gabapentin]
onset of action [8]: 5-6 weeks

C=C1CC[C@@]2(O)[C@H]3Cc4ccc(O)c5c4[C@@]2(CCN3CC2CC2)[C@H]1O5 [nalmefene]
effect on pruritus symptoms [9]: decreased pruritus symptoms | side effects [9]: significant central nervous and gastrointestinal side effects occurred

C=CCN1CC[C@]23c4c5ccc(O)c4O[C@H]2C(=O)CC[C@@]3(O)[C@H]1C5 [naloxone]
effect on pruritus symptoms [9]: decreased pruritus symptoms | side effects [9]: significant central nervous and gastrointestinal side effects occurred

O=C1CC[C@@]2(O)[C@H]3Cc4ccc(O)c5c4[C@@]2(CCN3CC2CC2)[C@H]1O5 [naltrexone]
effect on pruritus symptoms [9]: decreased pruritus symptoms | side effects [9]: significant central nervous and gastrointestinal side effects occurred

Cc1ccc(O)c([C@H](CCN(C(C)C)C(C)C)c2ccccc2)c1 [tolterodine, reference compound]
adverse experience of dry mouth (patients with OAB): common | efficacy compared with placebo (patients with OAB): statistically significantly more effective | efficacy compared with serlopitant at all efficacy end points (patients with OAB): numerically more effective
